How the values were obtained:
miR-4516 = assay: miRNA / miR-4516 expression by RNA microarray and qPCR in MSCs and exosomes; type: cell-based, human; conditions: healthy MSCs and CKD-MSCs treated with melatonin; qPCR; FIG. 4F
[1] = test system: cellular prion protein (PrPC); type: cell-based, human; conditions: healthy and CKD patient MSCs treated with melatonin; ELISA; FIGS. 4B, 4C

COc1ccc2[nH]cc(CCNC(C)=O)c2c1 [melatonin]
expression level of miR-4516 in stem cells (miR-4516): increase | expression of prion proteins present in the exosomes extracted from stem cells [1]: increases
